The results in this text go back to patent publication US20230183219A1, “CONDENSED SUBSTITUTED HYDROPYRROLES AS ANTAGONISTS OF THE MUSCARINIC ACETYLCHOLINE RECEPTOR M4” (Vanderbilt University, priority 2020, published 2023).

In the assay the target is T1, Human M4 (Homo sapiens, UniProt P08173).
T1 construct: Human or rat M4 cDNA, along with the chimeric G protein Gqi5, were transfected into Chinese hamster ovary (CHO-K1) cells; expressed in transfected cells; host or cells: CHO-K1 (Chinese hamster ovary, ATCC), stably co-expressing Gqi5
T1 sequence (P08173 1-479): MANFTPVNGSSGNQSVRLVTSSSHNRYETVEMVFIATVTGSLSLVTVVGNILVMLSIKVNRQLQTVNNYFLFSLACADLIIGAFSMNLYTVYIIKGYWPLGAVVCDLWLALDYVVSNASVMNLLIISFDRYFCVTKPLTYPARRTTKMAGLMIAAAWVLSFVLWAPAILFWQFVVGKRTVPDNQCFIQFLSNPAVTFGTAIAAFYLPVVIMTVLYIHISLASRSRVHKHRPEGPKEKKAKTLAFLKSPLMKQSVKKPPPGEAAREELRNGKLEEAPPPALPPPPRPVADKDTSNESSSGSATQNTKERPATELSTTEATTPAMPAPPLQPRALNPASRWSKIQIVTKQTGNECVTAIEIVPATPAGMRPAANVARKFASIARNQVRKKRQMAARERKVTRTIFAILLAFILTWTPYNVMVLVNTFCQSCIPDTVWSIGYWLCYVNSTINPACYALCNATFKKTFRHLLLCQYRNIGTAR
Briefly: mAChR M4 cell-based functional assay (calcium flux, decrease of EC80 acetylcholine response). Particulars: for remaining activity at 30 µM: % ACh maximum at 30 μM, read-out: Human M4 Emin; for IC50: M4/Gqi5/CHO-K1 cells, decrease of response to EC80 acetylcholine. Here is the method:
Human or rat M4 cDNA, along with the chimeric G protein Gqi5, were transfected into Chinese hamster ovary (CHO-K1) cells purchased from the American Type Culture Collection using Lipofectamine2000. M4/Gqi5/CHO cells were grown in Ham's F-12 medium containing 10% heat-inactivated fetal bovine serum (FBS), 20 mM HEPES, 500 μg/mL G418 sulfate, and 200 μg/mL Hygromycin B.
For high throughput measurement of agonist-evoked increases in intracellular calcium, CHO-K1 cells stably expressing muscarinic receptors were plated in growth medium lacking G418 and hygromycin at 15,000 cells/20 μL/well in Greiner 384-well black-walled, tissue culture (TC)-treated, clear-bottom plates (VWR). Cells were incubated overnight at 37° C. and 5% CO2. The next day, cells were washed using an ELX 405 (BioTek) with assay buffer; the final volume was then aspirated to 20 μL. Next, 20 μL of a 2.3 μM stock of Fluo-4/acetoxymethyl ester (Invitrogen, Carlsbad, Calif.), prepared as a 2.3 mM stock in DMSO and mixed in a 1:1 ratio with 10% (w/v) Pluronic F-127 and diluted in assay buffer, was added to the wells and the cell plates were incubated for 50 min at 37° C. and 5% CO2. Dye was removed by washing with the ELX 405 and the final volume was aspirated to 20 μL. Compound master plates were formatted in a 10 point concentration-response curve (CRC) format (1:3 dilutions) in 100% DMSO with a starting concentration of 10 or 1 mM using a BRAVO liquid handler (Agilent). Test compound CRCs were then transferred to daughter plates (240 nL) using the Echo acoustic plate reformatter (Labcyte, Sunnyvale, Calif.) and then diluted into assay buffer (40 μL) to a 2×stock using a Thermo Fisher Combi (Thermo Fisher Scientific, Waltham, Mass.).
Calcium flux was measured using the Functional Drug Screening System (FDSS) 6000 or 7000 (Hamamatsu Corporation, Tokyo, Japan) as an increase in the fluorescent static ratio. Compounds were applied to cells (20 μL, 2×) using the automated system of the FDSS at 2 seconds into the protocol and the data were collected at 1 Hz. At 143 s, 10 μL of an EC20 concentration of the muscarinic receptor agonist acetylcholine was added (5×), followed by the addition of 12 μL of an EC80 concentration of acetylcholine at the 268 s time point (5×). Agonist activity was analyzed as a concentration-dependent increase in calcium mobilization upon compound addition. Positive allosteric modulator activity was analyzed as a concentration-dependent increase in the EC20 acetylcholine response. Antagonist activity was analyzed as a concentration-dependent decrease in the EC80 acetylcholine response; for the purposes of the tables herein, an IC50 (inhibitory concentration 50) was calculated as a concentration-dependent decrease of the response elicited by an EC80 concentration of acetylcholine. Concentration-response curves were generated using a four-parameter logistical equation in XLFit curve fitting software (IDBS, Bridgewater, N.J.) for Excel (Microsoft, Redmond, Wash.) or Prism (GraphPad Software, Inc., San Diego, Calif.) or the Dotmatics software platform (Dotmatics, Bishop's Stortford, UK).
Compounds were synthesized as described above. Activity (IC50 and Emin) was determined in the mAChR M4 cell-based functional assay as described above and the data are shown in Table 2.

One may read the IC50 as the concentration that gives 50% inhibition. `Fc1ccc(Cl)c(-c2nnc(N[C@H]3C[C@@H]4CN(CC5CCOCC5)C[C@@H]4C3)cc2C(F)(F)F)c1` [Example 10, (3aR,5s,6aS)-N-(6-(2-chloro-5-fluorophenyl)-5-(trifluoro-methyl)pyridazin-3-yl)-2-((tetrahydro-2H-pyran-4-yl)methyl)octahydro-cyclopenta[c]pyrrol-5-amine]: the remaining activity at 30 µM was 3% and the IC50 was 2.06 nM.
On the same counts, the results for `FC(F)(F)c1ccccc1-c1cc(C(F)(F)F)c(N[C@H]2C[C@@H]3CN(CC4CCOCC4)C[C@@H]3C2)nn1` [Example 41, (3aR,5s,6aS)-2-((tetrahydro-2H-pyran-4-yl)methyl)-N-(4-(trifluoromethyl)-6-(2-(trifluoromethyl)phenyl)pyridazin-3-yl)octahydro-cyclopenta[c]pyrrol-5-amine] are 3% and 13.6 nM.
As to `Cn1ncc2cc(-c3cc(C(F)(F)F)c(N[C@H]4C[C@@H]5CN(CC6CCOCC6)C[C@@H]5C4)nn3)ccc21` [Example 75, (3aR,5s,6aS)-N-(6-(1-methyl-1H-indazol-5-yl)-4-(trifluoromethyl)pyridazin-3-yl)-2-((tetrahydro-2H-pyran-4-yl)methyl)octahydro-cyclopenta[c]pyrrol-5-amine], the remaining activity at 30 µM was 3% and the IC50 came out at 45.1 nM.
As for `Fc1ccc(F)c(-c2cc(C(F)(F)F)c(N[C@H]3C[C@@H]4CN(C[C@H]5COCCO5)C[C@@H]4C3)nn2)c1` [Example 70, (3aR,5s,6aS)-2-(((S)-1,4-dioxan-2-yl)methyl)-N-(6-(2,5-difluorophenyl)-4-(trifluoromethyl)pyridazin-3-yl)octahydro-cyclopenta[c]pyrrol-5-amine], the remaining activity at 30 µM was 3% and the IC50 was 142 nM.
For the compound `Cn1cc2cc(-c3cc(C#N)c(N[C@H]4C[C@@H]5CN(C[C@@H]6COCCO6)C[C@@H]5C4)nn3)ccc2n1` [Example 157, 3-(((3aR,5s,6aS)-2-(((R)-1,4-dioxan-2-yl)methyl)octahydro-cyclopenta[c]pyrrol-5-yl)amino)-6-(2-methyl-2H-indazol-5-yl)pyridazine-4-carbonitrile], the remaining activity at 30 µM is 5% and the IC50 is 54.9 nM.
In the case of `COc1ccc(-c2cc(C(F)(F)F)c(N[C@H]3C[C@@H]4CN(CC5CCOCC5)C[C@@H]4C3)nn2)c(F)c1F` [Example 62, (3aR,5s,6aS)-N-(6-(2,3-difluoro-4-methoxyphenyl)-4-(trifluoromethyl)pyridazin-3-yl)-2-((tetrahydro-2H-pyran-4-yl)methyl)octahydro-cyclopenta[c]pyrrol-5-amine], the remaining activity at 30 µM amounted to 3% and the IC50 is 258 nM.
For the compound `COc1ccccc1-c1cc(C(F)(F)F)c(N[C@H]2C[C@@H]3CN(CC4CCOCC4)C[C@@H]3C2)nn1` [Example 64, (3aR,5s,6aS)-N-(6-(2-methoxyphenyl)-4-(trifluoromethyl)pyridazin-3-yl)-2-((tetrahydro-2H-pyran-4-yl)methyl)octahydro-cyclopenta[c]pyrrol-5-amine], the remaining activity at 30 µM is 3% and the IC50 came out at 54 nM.
On to `[2H]C([2H])(C1CCOCC1)N1C[C@H]2C[C@H](Nc3nnc(-c4ccc(OC)cc4C)cc3C(F)(F)F)C[C@H]2C1` [Example 122, (3aR,5s,6aS)-N-(6-(4-methoxy-2-methylphenyl)-4-(trifluoromethyl)pyridazin-3-yl)-2-((tetrahydro-2H-pyran-4-yl)methyl-d2)octahydro-cyclopenta[c]pyrrol-5-amine], for which the remaining activity at 30 µM was determined as 3% and the IC50 came out at 33.2 nM.
Take `FC(F)(F)c1cc(-c2ccccc2)nnc1N[C@H]1C[C@@H]2CN(CC3CCOCC3)C[C@@H]2C1` [Example 65, (3aR,5s,6aS)-N-(6-phenyl-4-(trifluoromethyl)pyridazin-3-yl)-2-((tetrahydro-2H-pyran-4-yl)methyl)octahydro-cyclopenta[c]pyrrol-5-amine]: the remaining activity at 30 µM was determined as 3% and the IC50 turned out to be 69 nM.
The corresponding values for `Cn1ccc2ccc(-c3cc(C(F)(F)F)c(N[C@H]4C[C@@H]5CN(CC6CCOCC6)C[C@@H]5C4)nn3)cc21` [Example 90, (3aR,5s,6aS)-N-(6-(1-methyl-1H-indol-6-yl)-4-(trifluoromethyl)pyridazin-3-yl)-2-((tetrahydro-2H-pyran-4-yl)methyl)octahydro-cyclopenta[c]pyrrol-5-amine] are 4% and 637 nM.
For the compound `Cn1cc2cc(-c3cc(C(F)(F)F)c(N[C@H]4C[C@@H]5CN(CC6COCCO6)C[C@@H]5C4)nn3)ccc2n1` (stereo partly drawn) [Example 20, (3aR,5s,6aS)-2-((1,4-dioxan-2-yl)methyl)-N-(6-(2-methyl-2H-indazol-5-yl)-4-(trifluoromethyl)pyridazin-3-yl)octahydro-cyclopenta[c]pyrrol-5-amine], the remaining activity at 30 µM turned out to be 3% and the IC50 is 25.1 nM.
Turning to `Cn1cc2cc(-c3cc(C#N)c(N[C@H]4C[C@@H]5CN(CC6(C#N)CC6)C[C@@H]5C4)nn3)ccc2n1` [Example 160, 3-(((3aR,5s,6aS)-2-((1-cyano-cyclopropyl)methyl)octahydro-cyclopenta[c]pyrrol-5-yl)amino)-6-(2-methyl-2H-indazol-5-yl)pyridazine-4-carbonitrile], the remaining activity at 30 µM came out at 6% and the IC50 was 688 nM.
With `Cc1cnc(F)cc1-c1cc(C(F)(F)F)c(N[C@H]2C[C@@H]3CN(CC4CCOCC4)C[C@@H]3C2)nn1` [Example 113, (3aR,5s,6aS)-N-(6-(2-fluoro-5-methylpyridin-4-yl)-4-(trifluoromethyl)pyridazin-3-yl)-2-((tetrahydro-2H-pyran-4-yl)methyl)octahydro-cyclopenta[c]pyrrol-5-amine], the remaining activity at 30 µM worked out at 3% and the IC50 stood at 6.1 nM.
With `[2H][C@@]1(Oc2nnc(-c3cc(F)ccc3C)cc2C(F)(F)F)C[C@H]2CN(CC3CCOCC3)C[C@H]2C1` [Example 135, (3aR,5s,6aS)-5-((6-(5-fluoro-2-methylphenyl)-4-(trifluoro-methyl)pyridazin-3-yl)oxy)-2-((tetrahydro-2H-pyran-4-yl)methyl)octahydro-cyclopenta[c]pyrrole-5-d], the remaining activity at 30 µM was found to be 4% and the concentration for half-maximal inhibition (IC50) was found to be 622 nM.
Take `Cn1cc2cc(-c3cc(C(F)(F)F)c(N[C@H]4C[C@@H]5CN(C[C@H]6CC7CCC6O7)C[C@@H]5C4)nn3)ccc2n1` (stereo partly drawn) [Example 27, (3aR,5s,6aS)-2-(((2R)-7-oxabicyclo[2.2.1]heptan-2-yl)methyl)-N-(6-(2-methyl-2H-indazol-5-yl)-4-(trifluoromethyl)pyridazin-3-yl)octahydro-cyclopenta[c]pyrrol-5-amine]: the remaining activity at 30 µM worked out at 3% and the half-inhibitory concentration (IC50) was 74.3 nM.
